Calls of active or inactive are those of the source. No rule for the calls is given here.
System: rodent carcinogenicity bioassays, tumor incidence
Experiment: CCRIS carcinogenicity studies
Summary of the method: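 Archive of carcinogenicity, mutagenicity, tumor promotion and tumor inhibition results drawn from journals, NCI reports and other sources, expert-reviewed; covers 1985-2011 and is no longer updated.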

## c1ccc2c(c1)ccc1cc3ccc4c(c3nc12)[C@@H]1O[C@@H]1CC4
Species: MOUSE, Strain/Sex: CD-1/FEMALE, Route: INTRAPERITONEAL, Dose: 0, 28 NMOL (TOTAL DOSE) ADMINISTERED AS 1/7 OF DOSE WITHIN 24 HR AFTER BIRTH, 2/7 OF DOSE AT 8 D OLD, 4/7 OF DOSE AT 15
  carcinogen call: inactive; negative
Species: MOUSE, Strain/Sex: CD-1/MALE, Route: INTRAPERITONEAL, Dose: 0, 28 NMOL (TOTAL DOSE) ADMINISTERED AS 1/7 OF DOSE WITHIN 24 HR AFTER BIRTH, 2/7 OF DOSE AT 8 D OLD, 4/7 OF DOSE AT 15
  carcinogen call: inactive; negative

## CC(=O)N(C)C
Species: MOUSE, Strain/Sex: CRL:CD-1 (ICR)BR/FEMALE, Route: INHALATION, Dose: 0, 25, 100, 350 PPM 6 HR/D 5 D/WK FOR 18 MO (STUDY DURATION: 18 MO), Dose: 0, 25, 100, 350 PPM 6 HR/D 5 D/WK FOR 18 MO (STUDY DURATION: 18 MO)
  carcinogen call: inactive; negative
Species: MOUSE, Strain/Sex: CRL:CD-1 (ICR)BR/MALE, Route: INHALATION, Dose: 0, 25, 100, 350 PPM 6 HR/D 5 D/WK FOR 18 MO (STUDY DURATION: 18 MO), Dose: 0, 25, 100, 350 PPM 6 HR/D 5 D/WK FOR 18 MO (STUDY DURATION: 18 MO)
  carcinogen call: inactive; negative
Species: RAT, Strain/Sex: CRL:CD BR/FEMALE, Route: INHALATION, Dose: 0, 25, 100, 350 PPM 6 HR/D 5 D/WK FOR 2 YR (STUDY DURATION: 2 YR), Dose: 0, 25, 100, 350 PPM 6 HR/D 5 D/WK FOR 2 YR (STUDY DURATION: 2 YR)
  carcinogen call: inactive; negative
Species: RAT, Strain/Sex: CRL:CD BR/MALE, Route: INHALATION, Dose: 0, 25, 100, 350 PPM 6 HR/D 5 D/WK FOR 2 YR (STUDY DURATION: 2 YR), Dose: 0, 25, 100, 350 PPM 6 HR/D 5 D/WK FOR 2 YR (STUDY DURATION: 2 YR)
  carcinogen call: inactive; negative

## Nc1ccc(N=Nc2ccccc2)cc1
Species: MOUSE, Strain/Sex: B6C3F1/FEMALE, Route: INTRAPERITONEAL, Dose: 0, 0.3 UMOL/G IN TRIOCTANOIN ONCE ON DAY 1 FOLLOWED BY 0.4 UMOL/G ONCE ON DAY 8, 15 AND 22 (STUDY DURATION: UP TO 10 MO)
  carcinogen call: inactive; negative
Species: MOUSE, Strain/Sex: B6C3F1/MALE, Route: INTRAPERITONEAL, Dose: 0, 0.017, 0.05, 0.15, 0.45 UMOL/G ONCE IN TRIOCTANOIN (STUDY DURATION: 10 MO), Dose: 0, 0.017, 0.05, 0.15, 0.45 UMOL/G ONCE IN TRIOCTANOIN (STUDY DURATION: 10 MO), Tumor Site: Type of Lesion: LIVER: HEPATOMA
  carcinogen call: active; positive
Species: MOUSE, Strain/Sex: B6C3F1/MALE, Route: INTRAPERITONEAL, Dose: 0, 0.3 UMOL/G IN TRIOCTANOIN ONCE ON DAY 1 FOLLOWED BY 0.4 UMOL/G ONCE ON DAY 8, 15 AND 22 (STUDY DURATION: UP TO 10 MO), Tumor Site: Type of Lesion: LIVER: HEPATOMA
  carcinogen call: active; positive
Species: MOUSE, Strain/Sex: C3H/MALE, Route: INTRAPERITONEAL, Dose: 0, 0.45 UMOL/G ONCE IN TRIOCTANOIN (STUDY DURATION: 11 MO), Tumor Site: Type of Lesion: LIVER: HEPATOMA
  carcinogen call: active; positive
Species: MOUSE, Strain/Sex: C57BL/MALE, Route: INTRAPERITONEAL, Dose: 0, 0.45 UMOL ONCE IN TRIOCTANOIN (STUDY DURATION: 11 MO), Tumor Site: Type of Lesion: LIVER: HEPATOMA
  carcinogen call: active; positive
Species: RAT, Route: DERMAL, Tumor Site: Type of Lesion: INTEGUMENTARY SYSTEM (SKIN)
  carcinogen call: active; positive
Species: RAT, Route: ORAL, Tumor Site: Type of Lesion: LIVER
  carcinogen call: active; positive
Species: RAT, Strain/Sex: F344/MALE, Route: INTRAPERITONEAL, Dose: 0, 0.3 UMOL/G IN TRIOCTANOIN ONCE ON DAY 1 FOLLOWED BY 0.4 UMOL/G ONCE ON D 8, 15 AND 22 (STUDY DURATION: 24 MO)
  carcinogen call: inactive; negative

## ONc1ccc2ccccc2c1
Species: DOG, Strain/Sex: BEAGLE, Route: INTRAVESICULAR, Dose: 5 MG IN DMSO EVERY TWO WK FOR 30 MO, Tumor Site: Type of Lesion: URINARY BLADDER: PAPILLARY TRANSITIONAL CELL CARCINOMA (INVASIVE)
  carcinogen call: active; positive
Species: MOUSE, Strain/Sex: BALB, Route: SUBCUTANEOUS, Dose: 100 UG IN AQUEOUS GELATIN 1/D FOR 5 D, Tumor Site: Type of Lesion: LUNG: ADENOMA
  carcinogen call: active; positive
Species: MOUSE, Strain/Sex: SWISS/FEMALE, Route: SUBCUTANEOUS, Dose: 100 UG IN GELATIN ON D 1, 3 AND 5 OF LIFE, Tumor Site: Type of Lesion: LUNG: ADENOMA, CARCINOMA
  carcinogen call: active; positive
Species: MOUSE, Strain/Sex: SWISS/MALE, Route: SUBCUTANEOUS, Dose: 100 UG IN GELATIN ON D 1, 3 AND 5 OF LIFE, Tumor Site: Type of Lesion: LIVER: HEPATOMA
  carcinogen call: active; positive
Species: RAT, Strain/Sex: STRAIN-CB/MALE, Route: INTRAPERITONEAL, Dose: 50 MG/KG IN ARACHIS OIL 2/WK FOR 3 MO, Tumor Site: Type of Lesion: PERITONEAL CAVITY: SARCOMA, CARCINOMA
  carcinogen call: active; positive

## OCc1c2ccccc2cc2c1ccc1ccccc12
Species: RAT, Strain/Sex: SPRAGUE-DAWLEY/FEMALE, Route: SUBCUTANEOUS, Dose: 0, 0.2 UMOL IN SESAME OIL:DMSO (9:1) 3/WK FOR 20 DOSES (STUDY DURATION: 52 WK), Tumor Site: Type of Lesion: INJECTION SITE: SARCOMA
  carcinogen call: active; positive

## CCCCCCCC/C=C/CCCCCCCC(=O)OCCOCC(OCCO)C1OCC(OCCO)C1OCCO (stereo not drawn)
Species: MOUSE, Strain/Sex: B6C3F1/FEMALE, Route: ORAL, Dose: 0, 25000, 50000 PPM IN FEED 7 D/WK FOR 103 WK (STUDY DURATION: 103 WK), Dose: 0, 25000, 50000 PPM IN FEED 7 D/WK FOR 103 WK (STUDY DURATION: 103 WK)
  carcinogen call: inactive; negative
Species: MOUSE, Strain/Sex: B6C3F1/MALE, Route: ORAL, Dose: 0, 25000, 50000 PPM IN FEED 7 D/WK FOR 103 WK (STUDY DURATION: 103 WK), Dose: 0, 25000, 50000 PPM IN FEED 7 D/WK FOR 103 WK (STUDY DURATION: 103 WK)
  carcinogen call: inactive; negative
Species: RAT, Strain/Sex: F344/FEMALE, Route: ORAL, Dose: 0, 25000, 50000 PPM IN FEED 7 D/WK FOR 103 WK (STUDY DURATION: 103 WK), Dose: 0, 25000, 50000 PPM IN FEED 7 D/WK FOR 103 WK (STUDY DURATION: 103 WK)
  carcinogen call: inactive; negative
Species: RAT, Strain/Sex: F344/MALE, Route: ORAL, Dose: 0, 25000, 50000 PPM IN FEED 7 D/WK FOR 103 WK (STUDY DURATION: 103 WK), Dose: 0, 25000, 50000 PPM IN FEED 7 D/WK FOR 103 WK (STUDY DURATION: 103 WK), Tumor Site: Type of Lesion: ADRENAL MEDULLA: PHEOCHROMOCYTOMA
  carcinogen call: equivocal

## COc1ccc(C(c2ccc(OC)cc2)C(Cl)(Cl)Cl)cc1
Species: MOUSE, Strain/Sex: B6C3F1/FEMALE, Route: ORAL, Dose: 0, 997, 1994 PPM IN DIET, TWA, Dose: 0, 997, 1994 PPM IN DIET, TWA
  carcinogen call: inactive; negative
Species: MOUSE, Strain/Sex: B6C3F1/MALE, Route: ORAL, Dose: 0, 1746, 3491 PPM IN DIET, TWA, Dose: 0, 1746, 3491 PPM IN DIET, TWA
  carcinogen call: inactive; negative
Species: MOUSE, Strain/Sex: BALB/MALE, Route: ORAL, Dose: 750 PPM IN DIET, Tumor Site: Type of Lesion: TESTES: INTERSTITIAL CELL CARCINOMA
  carcinogen call: active; positive
Species: RAT, Strain/Sex: OSBORNE-MENDEL/FEMALE, Route: ORAL, Dose: 0, 750, 1385 PPM IN DIET, TWA, Dose: 0, 750, 1385 PPM IN DIET, TWA
  carcinogen call: inactive; negative
Species: RAT, Strain/Sex: OSBORNE-MENDEL/MALE, Route: ORAL, Dose: 0, 448, 845 PPM IN DIET, TWA, Dose: 0, 448, 845 PPM IN DIET, TWA
  carcinogen call: inactive; negative

## CCCN(CCC)C(=O)SCC
Species: Mouse, Strain/Sex: Crl:CD-1/Female (60/Group), Route: Oral, Dose: 0, 200, 600, 1800 ppm in diet for 73 wks, study duration 73 wks, Dose: 0, 200, 600, 1800 ppm in diet for 73 wks, study duration 73 wks
  carcinogen call: inactive; negative
Species: Mouse, Strain/Sex: Crl:CD-1/Male (60/Group), Route: Oral, Dose: 0, 200, 600, 1800 ppm in diet for 73 wks, study duration 73 wks, Dose: 0, 200, 600, 1800 ppm in diet for 73 wks, study duration 73 wks
  carcinogen call: inactive; negative
Species: Rat, Strain/Sex: Crl:CD (SD) BR/Female (90/Group), Route: Oral, Dose: 0, 9, 18, 36, 72 mg/kg/day in diet for 2 yr, study duration 2 yr, Dose: 0, 9, 18, 36, 72 mg/kg/day in diet for 2 yr, study duration 2 yr
  carcinogen call: inactive; negative
Species: Rat, Strain/Sex: Crl:CD (SD) BR/Male (90/Group), Route: Oral, Dose: 0, 9, 18, 36, 72 mg/kg/day in diet for 2 yr, study duration 2 yr, Dose: 0, 9, 18, 36, 72 mg/kg/day in diet for 2 yr, study duration 2 yr
  carcinogen call: inactive; negative
